From ChEMBL document CHEMBL5365500, “Development and Antibacterial Properties of 4-[4-(Anilinomethyl)-3-phenylpyrazol-1-yl]benzoic Acid Derivatives as Fatty Acid Biosynthesis Inhibitors” (J Med Chem, 2023)
In brackets after ≈: the same amount, converted by molar mass. Activity calls are given as the source filed them. The rule behind the calls is not given here.

Legend:
[1] = tested on: Staphylococcus aureus; experiment: Antimicrobial activity against clinical isolate Staphylococcus aureus Smu109 assessed as inhibition of growth measured after 20 to 24 hrs incubation by CLSI method; type: functional; conditions: time 20-24 hrs
[2] = tested on: Staphylococcus aureus; experiment: Antimicrobial activity against Staphylococcus aureus UAB159 assessed as inhibition of growth measured after 20 to 24 hrs incubation by CLSI method; type: functional; conditions: time 20-24 hrs
[3] = tested on: Staphylococcus aureus; experiment: Antimicrobial activity against clinical isolate Staphylococcus aureus Smu9 assessed as inhibition of growth measured after 20 to 24 hrs incubation by CLSI method; type: functional; conditions: time 20-24 hrs
[4] = tested on: Staphylococcus aureus; experiment: Antimicrobial activity against clinical isolate Staphylococcus aureus Smu21 assessed as inhibition of growth measured after 20 to 24 hrs incubation by CLSI method; type: functional; conditions: time 20-24 hrs
[5] = tested on: Staphylococcus aureus; experiment: Antimicrobial activity against clinical isolate Staphylococcus aureus Smu57 assessed as inhibition of growth measured after 20 to 24 hrs incubation by CLSI method; type: functional; conditions: time 20-24 hrs
[6] = tested on: Staphylococcus aureus; experiment: Antimicrobial activity against clinical isolate Staphylococcus aureus Smu81 assessed as inhibition of growth measured after 20 to 24 hrs incubation by CLSI method; type: functional; conditions: time 20-24 hrs
[7] = tested on: Staphylococcus aureus; experiment: Antimicrobial activity against Staphylococcus aureus ATCC 25923 assessed as inhibition of visible growth measured after 20 to 24 hrs incubation by CLSI method; type: functional; conditions: time 20-24 hrs
[8] = tested on: Staphylococcus aureus; experiment: Antimicrobial activity against antibiotic-resistant Staphylococcus aureus ATCC BAA-2312 assessed as inhibition of visible growth measured after 20 to 24 hrs incubation by CLSI method; type: functional; conditions: time 20-24 hrs
[9] = tested on: Staphylococcus aureus; experiment: Antimicrobial activity against antibiotic-resistant Staphylococcus aureus ATCC 33591 assessed as inhibition of visible growth measured after 20 to 24 hrs incubation by CLSI method; type: functional; conditions: time 20-24 hrs
[10] = tested on: Staphylococcus aureus; experiment: Antimicrobial activity against antibiotic-resistant Staphylococcus aureus ATCC 33592 assessed as inhibition of visible growth measured after 20 to 24 hrs incubation by CLSI method; type: functional; conditions: time 20-24 hrs
[11] = tested on: Staphylococcus aureus; experiment: Antimicrobial activity against antibiotic-resistant Staphylococcus aureus ATCC 700699 assessed as inhibition of visible growth measured after 20 to 24 hrs incubation by CLSI method; type: functional; conditions: time 20-24 hrs
[12] = tested on: Staphylococcus epidermidis; experiment: Antimicrobial activity against antibiotic-resistant Staphylococcus epidermidis ATCC 700296 assessed as inhibition of visible growth measured after 20 to 24 hrs incubation by CLSI method; type: functional; conditions: time 20-24 hrs
[13] = tested on: Enterococcus faecalis; experiment: Antimicrobial activity against antibiotic-susceptible Enterococcus faecalis ATCC 29212 assessed as inhibition of visible growth measured after 20 to 24 hrs incubation by CLSI method; type: functional; conditions: time 20-24 hrs
[14] = tested on: Enterococcus faecalis; experiment: Antimicrobial activity against antibiotic-resistant Enterococcus faecalis ATCC 51299 assessed as inhibition of visible growth measured after 20 to 24 hrs incubation by CLSI method; type: functional; conditions: time 20-24 hrs
[15] = tested on: Enterococcus faecium; experiment: Antimicrobial activity against antibiotic-resistant Enterococcus faecium ATCC 700221 assessed as inhibition of visible growth measured after 20 to 24 hrs incubation by CLSI method; type: functional; conditions: time 20-24 hrs
[16] = tested on: Bacillus subtilis; experiment: Antimicrobial activity against antibiotic-resistant Bacillus subtilis ATCC 6623 assessed as inhibition of visible growth measured after 20 to 24 hrs incubation by CLSI method; type: functional; conditions: time 20-24 hrs
[17] = tested on: HEK293; experiment: Cytotoxicity against human HEK293 cells assessed as cell viability measured after 24 hrs by resazurin assay; type: toxicity, cell-based
[18] = tested on: Staphylococcus aureus; experiment: In vivo antimicrobial activity against Staphylococcus aureus USA300 infected in Caenorhabditis elegans AU37 nematodes assessed as viability of nematodes incubated for 5 days by susceptibility test; type: functional; conditions: USA300, 120 h, time 5 day
[19] = tested on: Staphylococcus aureus; experiment: In vivo antimicrobial activity against Staphylococcus aureus Newman infected in Caenorhabditis elegans AU37 nematodes assessed as viability of nematodes incubated for 5 days by susceptibility test; type: functional; conditions: 120 h, time 5 day
[20] = tested on: Staphylococcus aureus; experiment: In vivo antimicrobial activity against Staphylococcus aureus UAMS-1 infected in Caenorhabditis elegans AU37 nematodes assessed as viability of nematodes incubated for 5 days by susceptibility test; type: functional; conditions: UAMS-1, 120 h, time 5 day
[21] = tested on: Staphylococcus aureus; experiment: Antimicrobial activity against methicilline-resistant Staphylococcus aureus ATCC 700699 persisters assessed as bacterial killing at 32 time of MIC concentration measured for every 2 hrs upto 8 hrs by Persisters time course assay; type: functional, organism-based
[22] = tested on: Panel NCI-60 (60 carcinoma cell lines); experiment: Cytotoxicity against human panel NCI-60 (60 carcinoma cell lines)cells assessed as cell viability at 10 uM measured after 24 hrs by resazurin assay; type: functional, cell-based
[23] = tested on: Staphylococcus aureus; experiment: Bactericidal activity in antibiotic-resistant Staphylococcus aureus ATCC 700699 assessed as reduction in viable cell count at 4 times of MIC measured upto 24 hrs by time kill assay; type: functional, organism-based
[24] = tested on: Staphylococcus aureus; experiment: Antimicrobial activity against Staphylococcus aureus ATCC 25923 assessed as eradication of biofilm measured after 24 hrs incubation by Calgary method; type: functional
[25] = tested on: Enterococcus faecalis; experiment: Antimicrobial activity against antibiotic-susceptible Enterococcus faecalis ATCC 29212 assessed as eradication of biofilm measured after 24 hrs incubation by Calgary method; type: functional

Compound | MIC [7] [µg/mL] | MIC [8] [µg/mL] | MIC [9] [µg/mL] | MIC [10] [µg/mL] | MIC [11] [µg/mL] | MIC [12] [µg/mL] | MIC [13] [µg/mL] | MIC [14] [µg/mL] | MIC [15] [µg/mL] | MIC [16] [µg/mL] | MIC [18] [µg/mL] | MIC [19] [µg/mL] | MIC [20] [µg/mL] | also measured
O=C(O)c1ccc(-n2cc(CNc3cc(Cl)cc(Cl)c3)c(-c3ccc(C(F)(F)F)cc3)n2)cc1 |  |  |  |  |  |  |  |  |  |  |  |  |  | MIC [1]: 2 µg/mL (≈ 3.95 µM); MIC [2]: 2 µg/mL (≈ 3.95 µM); MIC [3]: 1 µg/mL (≈ 1.98 µM); MIC [4]: 2 µg/mL (≈ 3.95 µM); MIC [5]: 2 µg/mL (≈ 3.95 µM); MIC [6]: 2 µg/mL (≈ 3.95 µM)
O=C(O)c1ccc(-n2cc(CNc3cc(Cl)c(F)c(Cl)c3)c(-c3cccc(F)c3)n2)cc1 | 1 (≈ 2.11 µM) | 0.5 (≈ 1.05 µM) | 0.5 (≈ 1.05 µM) | 1 (≈ 2.11 µM) | 2 (≈ 4.22 µM) | 2 (≈ 4.22 µM) | 8 (≈ 16.9 µM) | 4 (≈ 8.43 µM) | 4 (≈ 8.43 µM) | 1 (≈ 2.11 µM) | 1 (≈ 2.11 µM) | 1 (≈ 2.11 µM) | 1 (≈ 2.11 µM) | IC50 [17]: 20 µg/mL (≈ 42.2 µM)
O=C(O)c1ccc(-n2cc(CNc3cc(C(F)(F)F)cc(C(F)(F)F)c3)c(-c3cccc(F)c3)n2)cc1 | 2 (≈ 3.82 µM) | 1 (≈ 1.91 µM) | 1 (≈ 1.91 µM) | 1 (≈ 1.91 µM) | 2 (≈ 3.82 µM) | 4 (≈ 7.64 µM) | 4 (≈ 7.64 µM) | 2 (≈ 3.82 µM) | 2 (≈ 3.82 µM) | 1 (≈ 1.91 µM) |  |  |  | Activity [21]: Active
O=C(O)c1ccc(-n2cc(CNc3ccc(Cl)c(Cl)c3)c(-c3ccc(F)cc3)n2)cc1 | 2 (≈ 4.38 µM) | 1 (≈ 2.19 µM) | 0.5 (≈ 1.1 µM) | 2 (≈ 4.38 µM) | 1 (≈ 2.19 µM) | 4 (≈ 8.77 µM) | > 32 | > 32 | > 32 | 1 (≈ 2.19 µM) | 1 (≈ 2.19 µM) | 1 (≈ 2.19 µM) | 1 (≈ 2.19 µM) | 
O=C(O)c1ccc(-n2cc(CNc3cc(Br)cc(C(F)(F)F)c3)c(-c3cccc(F)c3)n2)cc1 | 2 (≈ 3.74 µM) | 1 (≈ 1.87 µM) | 1 (≈ 1.87 µM) | 2 (≈ 3.74 µM) | 2 (≈ 3.74 µM) | 4 (≈ 7.49 µM) | 4 (≈ 7.49 µM) | 4 (≈ 7.49 µM) | 2 (≈ 3.74 µM) | 1 (≈ 1.87 µM) | 1 (≈ 1.87 µM) | 1 (≈ 1.87 µM) | 1 (≈ 1.87 µM) | Activity [22]: inactive; Activity [23]: Active; Activity [21]: Active; MBEC [24]: 4 µg/mL; MBEC [25]: 4 µg/mL
O=C(O)c1ccc(-n2cc(CNc3cc(C(F)(F)F)cc(C(F)(F)F)c3)c(-c3ccc(F)cc3)n2)cc1 | 1 (≈ 1.91 µM) | 1 (≈ 1.91 µM) | 0.5 (≈ 0.955 µM) | 1 (≈ 1.91 µM) | 2 (≈ 3.82 µM) | 4 (≈ 7.64 µM) | 4 (≈ 7.64 µM) | 4 (≈ 7.64 µM) | 2 (≈ 3.82 µM) | 1 (≈ 1.91 µM) | 1 (≈ 1.91 µM) | 0.5 (≈ 0.955 µM) | 1 (≈ 1.91 µM) | 
O=C(O)c1ccc(-n2cc(CNc3cc(Cl)cc(C(F)(F)F)c3)c(-c3ccc(F)c(F)c3)n2)cc1 | 1 (≈ 1.97 µM) | 0.5 (≈ 0.985 µM) | 0.5 (≈ 0.985 µM) | 1 (≈ 1.97 µM) | 1 (≈ 1.97 µM) | 2 (≈ 3.94 µM) | 4 (≈ 7.88 µM) | 2 (≈ 3.94 µM) | 2 (≈ 3.94 µM) | 0.5 (≈ 0.985 µM) | 1 (≈ 1.97 µM) | 0.5 (≈ 0.985 µM) | 1 (≈ 1.97 µM) | 
O=C(O)c1ccc(-n2cc(CNc3cc(Cl)c(F)c(Cl)c3)c(-c3ccc(C(F)(F)F)cc3)n2)cc1 |  |  |  |  |  |  |  |  |  |  |  |  |  | MIC [1]: 2 µg/mL (≈ 3.81 µM); MIC [2]: 2 µg/mL (≈ 3.81 µM); MIC [3]: 2 µg/mL (≈ 3.81 µM); MIC [4]: 2 µg/mL (≈ 3.81 µM); MIC [5]: 2 µg/mL (≈ 3.81 µM); MIC [6]: 2 µg/mL (≈ 3.81 µM)
O=C(O)c1ccc(-n2cc(CNc3cc(Cl)cc(Cl)c3)c(-c3ccc(F)c(F)c3)n2)cc1 | 1 (≈ 2.11 µM) | 1 (≈ 2.11 µM) | 0.5 (≈ 1.05 µM) | 2 (≈ 4.22 µM) | 2 (≈ 4.22 µM) | 2 (≈ 4.22 µM) | 4 (≈ 8.43 µM) | 8 (≈ 16.9 µM) | 2 (≈ 4.22 µM) | 0.5 (≈ 1.05 µM) |  |  |  | 
O=C(O)c1ccc(-n2cc(CNc3ccc(Cl)c(Cl)c3)c(-c3ccc(F)c(F)c3)n2)cc1 | 1 (≈ 2.11 µM) | 1 (≈ 2.11 µM) | 0.5 (≈ 1.05 µM) | 1 (≈ 2.11 µM) | 2 (≈ 4.22 µM) | 2 (≈ 4.22 µM) | 4 (≈ 8.43 µM) | 8 (≈ 16.9 µM) | 2 (≈ 4.22 µM) | 0.5 (≈ 1.05 µM) |  |  |  | 
